Assays:
[1] = test system: mitochondrial β-oxidation in the liver; assay: activity of mitochondrial β-oxidation in the liver; settings: fatty acid analogues with sulphur in 3, 5, 7 position vs palmitic acid control
Text: Although all fatty acid anagoges with an odd positioning of the β-oxidation blocker X away from the carboxylic end block β-oxidation, the extent of their biological effect may be variable. This is due to the difference in biological degradation time of the various compounds. The inventors have done experiments to show the effect of moving X further from the carboxylic fatty acid end. In these experiments the activity (in nmol/min/mg/protein) of mitochondrial β-oxidation in the liver of fatty acid analogues was measured with sulphur in the 3, 5 and 7 positions relative to the carboxyl end. The activities were 0.81 for sulphur in the 3rd position, 0.61 for sulphur in the 5th position, 0.58 for sulphur in the 7th position, and 0.47 for palmitic acid, the non β-oxidation blocking control. […] However, as the decline is great for going from the 3rd to 5th position, but small going from the 5th to 7th position, it is reasonable to assume that this decline will continue to be less as one moves out the chain, and thus that it will be very far out indeed before no effect (compared to the control) is seen at all.

[2] = test system: femoral BMD; assay: femoral BMD in rats by DXA; format: in vivo, rat; settings: female Fischer rats, 50 mg/kg body weight, intragastric gavage, 4 months
Experimental: Fifty female Fischer rats were divided into 5 groups and were given methocel (control group), Wyeth 14,643, fenofibrate, tetradecylthioacetic acid (TTA) and pioglitazone (50 mg/kg body weight) by intragastric gavage for 4 months. Body weight was registered throughout the study. BMD was measured by double x-ray absorptiometry (DXA). Histomorhometry of femur was performed, and mechanical strength in the femoral shaft and collum femoris was measured.

[3] = degradation time in vivo of ω-oxidation-blocked fatty acid analogue; settings: triple bond at methyl end blocking ω-oxidation
Text: ω-oxidation is believed to be the main pathway for degradation of the fatty acid analogues as described with a block in the X position. Experiments were thus performed where R′ was changed to block w-oxidation, by introducing a triple bond at the methyl end of the fatty acid analogue. […] This is important for the use of the fatty acid analogues in pharmaceutical preparation, as it may potentiate the effects of the β-oxidizable fatty acid analogues by further slowing down their breakdown.

[4] = test system: preosteoblast cell line MC3T3-E1; assay: release of OPG, RANKL and IL6 from preosteoblast cell line MC3T3-E1; format: cell-based; settings: preosteoblasts (MC3T3-E1)
Text: The effect of the PPAR agonists on release of osteoprotegerin (OPG), RANKL and IL6 from the preosteoblast cell line MC3T3-E1 was investigated. […] Wyeth 14643, fenofibrate and TTA were also shown to stimulate OPG release and inhibit IL6 release from preosteoblasts, while no effects on RANKL could be detected.

[5] = test system: human monocytes; assay: differentiation of human monocytes into osteoclasts; format: cell-based
[6] = test system: preosteoclast cell line RAW264.7; assay: proliferation of preosteoclast cell line RAW264.7; format: cell-based

SMILES: CCCCCCCCCCCCCCCC(=O)O [palmitic acid]
- activity of mitochondrial β-oxidation in the liver [1]: 0.47 nmol/min/mg/protein

SMILES: CC(C)OC(=O)C(C)(C)Oc1ccc(C(=O)c2ccc(Cl)cc2)cc1 [fenofibrate]
- change in femoral BMD versus control rats [2]: 5.7%

SMILES: CC#CCCCCCCCCCCCSCC [3-thia-15-heptadecyn]
- degradation time in vivo [3]: substantially increased degradation time in vivo

SMILES: Cc1cccc(Nc2cc(Cl)nc(SCC(=O)O)n2)c1C [Wyeth 14,643]
- IL6 release [4]: stimulated
- OPG release [4]: stimulated
- RANKL release [4]: no effects
- IL6 release ([4]; listed as Wyeth 14643): inhibit
- OPG release ([4]; listed as Wyeth 14643): stimulate
- differentiation of human monocytes into osteoclasts [5]: inhibit the differentiation of human monocytes into osteoclasts in a dose-dependent manner
- proliferation of RAW264.7 [6]: inhibited the proliferation
- change in femoral BMD versus control rats [2]: 7%

SMILES: CCc1ccc(CCOc2ccc(CC3SC(=O)NC3=O)cc2)nc1 (stereo not drawn) [pioglitazone]
- change in femoral BMD versus control rats [2]: −3%
